{"source": "patent US20260027083A1", "about": "“USE OF PPAR AGONIST FOR IMPROVEMENT OF ENERGY METABOLISM” (NOVMETAPHARMA CO., LTD., priority 2022, published 2026)", "key": {"high-fat diet mice [1]": {"system": "high-fat diet mice", "assay": "High-fat diet mice: organ weights", "type": "in vivo, C57BL/6J mice", "conditions": "5 mg/kg/day oral, 60% HFD, vs HFD-V, FIG. 9", "procedure": "(§1) The care and use of experimental animals were carried out with the approval of the Institutional Animal Care and Use Committee of Pohang University of Science and Technology. C57BL/6J mice were purchased from Japan SLC, Inc. 50 four-week-old male C57/BL/6J mice were acclimated for 2 weeks. The mice were randomly divided and orally administered with vehicle or 5 mg/kg/day of D6 or WY14643 for 13 weeks (oral gavage), and obesity was induced by a 60% high-fat diet (#D12492, Research diets, NJ, USA). Body weights and food intakes were measured weekly from 6 weeks of age, and after 16 weeks of age, adipose tissue and muscle volumes were measured using a Trimodality imaging system.\n(§2) To confirm a metabolic disease inhibitory effect of the compound represented by Chemical Formula 1 through animal experiments, mice were acclimated for 2 weeks, and then obesity was induced by feeding a 60% high fat diet (HFD) and orally administered with vehicle or 5 mg/kg/day of the compound represented by Chemical Formula 1 (D6) or WY14643 for 13 weeks. Experiments such as IP-GTT, IP-ITT, and micro-CT were performed at the week 10 of drug administration (FIG. 5)."}, "high-fat diet mice [2]": {"system": "high-fat diet mice", "assay": "Intraperitoneal glucose tolerance test (IP-GTT) in high-fat diet mice", "type": "in vivo, C57BL/6J mice", "conditions": "5 mg/kg/day oral, 60% HFD, glucose 2 g/kg i.p. after 16 h fasting, FIG. 10", "procedure": "as §1\nA glucose tolerance test (GTT) was performed on mice after 16 weeks of age after fasting for 16 hours and intraperitoneal glucose administration at 2 g/kg body weight. The blood glucose levels were measured at 0, 15, 30, 45, 60, 90, and 120 minutes after tail vein injection.\nas §2, with “Experiments such as IP-GTT, IP-ITT, and micro-CT were performed at the week 10 of drug administration (FIG. 5).” left out"}}}
{"smiles": "COc1ccc(-c2cc(=O)oc3c(C)c(OC(=O)[C@H](Cc4c[nH]c5ccccc45)NC(=O)OC(C)(C)C)ccc23)cc1", "note": "[Chemical Formula 1, [4-(4-methoxyphenyl)-8-methyl-2-oxochromen-7-yl] (2S)-3-(1H-indol-3-yl)-2-[(2-methylpropan-2-yl)oxycarbonylamino]propanoate]", "values": [{"measurement": "epididymal white adipose tissue (eWAT) weight", "setting": "high-fat diet mice [1]", "result": "reduced"}, {"measurement": "liver weight", "setting": "high-fat diet mice [1]", "result": "reduced"}, {"measurement": "glucose tolerance (IP-GTT)", "setting": "high-fat diet mice [2]", "result": "improved"}]}
